{"source": "patent US4428937A", "about": "“Antibacterial agents” (Beecham Group Limited, priority 1975, dated 1984)", "key": {"[1]": {"system": "Staphylococcus aureus Russell", "experiment": "In-vitro synergy: MIC of ampicillin in presence of sodium deoxyclavulanate", "assay_type": "cell-based", "text": "(§1) The antibacterial and synergistic properties of sodium deoxyclavulanate are illustrated by the following in-vitro results: | Minimum Inhibitory Concentration | (μg/ml) of Ampicillin in Presence | of Various Concentrations of | Sodium Deoxyclavulanate (μg/ml) |Organism 0 1 5 20"}, "Klebsiella aerogenes E70": {"system": "Klebsiella aerogenes E70", "experiment": "In-vitro synergy: MIC of ampicillin in presence of sodium deoxyclavulanate", "assay_type": "cell-based", "text": "as §1"}, "β-lactamase": {"system": "β-lactamase", "details": "prior disclosures; cited from earlier work"}, "[2]": {"details": "prior disclosures; cited from earlier work"}, "[3]": {"experiment": "Overt toxic effects in mice, intraperitoneal", "assay_type": "in vivo", "details": "intra peritoneally, 500 mg/kg"}, "Klebsiella aerogenes A": {"system": "Klebsiella aerogenes A", "experiment": "In-vitro minimum inhibitory concentration", "assay_type": "cell-based", "text": "(§2) The antibacterial and synergistic properties of sodium deoxyclavulanate are illustrated by the following in-vitro results: | Minimum Inhibitory | Concentration of Sodium | Organism Deoxyclavulanate (μg/ml)"}, "Escherichia coli 10418": {"system": "Escherichia coli 10418", "experiment": "In-vitro minimum inhibitory concentration", "assay_type": "cell-based", "text": "as §2"}, "Enterobacter cloacae N1": {"system": "Enterobacter cloacae N1", "experiment": "In-vitro minimum inhibitory concentration", "assay_type": "cell-based", "text": "as §2"}, "[4]": {"system": "Serratia marcescens US 39", "experiment": "In-vitro minimum inhibitory concentration", "assay_type": "cell-based", "details": "US39", "text": "as §2"}, "Proteus mirabilis C 977": {"system": "Proteus mirabilis C 977", "experiment": "In-vitro minimum inhibitory concentration", "assay_type": "cell-based", "details": "C977", "text": "as §2"}, "Pseudomonas aeruginosa A": {"system": "Pseudomonas aeruginosa A", "experiment": "In-vitro minimum inhibitory concentration", "assay_type": "cell-based", "text": "as §2"}, "Staph. aureus Oxford": {"system": "Staph. aureus Oxford", "experiment": "In-vitro minimum inhibitory concentration", "assay_type": "cell-based", "details": "Staphylococcus aureus", "text": "as §2"}, "[5]": {"system": "Salmonella typhimurium CT10", "experiment": "In-vitro minimum inhibitory concentration", "assay_type": "cell-based", "details": "Salmonella enterica", "text": "as §2"}, "Bacillus subtilis A": {"system": "Bacillus subtilis A", "experiment": "In-vitro minimum inhibitory concentration", "assay_type": "cell-based", "text": "as §2"}, "Staph. aureus Russell": {"system": "Staph. aureus Russell", "experiment": "In-vitro minimum inhibitory concentration", "assay_type": "cell-based", "details": "Staphylococcus aureus", "text": "as §2"}, "[6]": {"details": "sodium deoxyclavulanate 0 μg/ml, read-out: Minimum Inhibitory Concentration of Ampicillin"}, "[7]": {"details": "sodium deoxyclavulanate 1 μg/ml"}, "[8]": {"details": "sodium deoxyclavulanate 5 μg/ml"}}, "data": [{"smiles": "CC1(C)S[C@@H]2[C@H](NC(=O)[C@H](N)c3ccccc3)C(=O)N2[C@H]1C(=O)O", "note": "[Ampicillin]", "values": [{"measurement": "MIC", "setting": "[1]; [6]", "result": 500, "unit": "mg/L"}, {"measurement": "Minimum Inhibitory Concentration of Ampicillin in Presence of Sodium Deoxyclavulanate", "setting": "[1]; [7]", "result": 0.8, "unit": "µg/mL"}, {"measurement": "Minimum Inhibitory Concentration of Ampicillin in Presence of Sodium Deoxyclavulanate", "setting": "[1]; [8]", "result": 0.08, "unit": "µg/mL"}, {"measurement": "MIC", "setting": "Klebsiella aerogenes E70; [6]", "result": "> 500", "unit": "mg/L"}, {"measurement": "Minimum Inhibitory Concentration of Ampicillin in Presence of Sodium Deoxyclavulanate", "setting": "Klebsiella aerogenes E70; [7]", "result": 0.8, "unit": "µg/mL"}, {"measurement": "Minimum Inhibitory Concentration of Ampicillin in Presence of Sodium Deoxyclavulanate", "setting": "Klebsiella aerogenes E70; [8]", "result": "0.2 to 0.4", "unit": "µg/mL"}]}, {"smiles": "O=C(O)[C@H]1/C(=C\\CO)O[C@@H]2CC(=O)N21", "note": "[Isoclavulanic acid, isoclavulanic acid]", "values": [{"measurement": "β-lactamase inhibitory activity", "setting": "β-lactamase", "result": "β-lactamase inhibitory activity"}, {"measurement": "anti-bacterial activity", "setting": "[2]", "result": "also have anti-bacterial"}]}, {"smiles": "C/C=C1\\O[C@@H]2CC(=O)N2[C@H]1C(=O)O", "note": "[Sodium deoxyclavulanate, Sodium Deoxyclavulanate]", "values": [{"measurement": "Inhibition by sodium deoxyclavulanate alone", "setting": "[1]; sodium deoxyclavulanate 20 μg/ml", "result": "Inhibition produced by sodium deoxyclavulanate alone"}, {"measurement": "overt toxic effects", "setting": "[3]", "result": "did not appear to produce any overt toxic effects"}, {"measurement": "MIC", "setting": "Klebsiella aerogenes A", "result": 62.5, "unit": "mg/L"}, {"measurement": "MIC", "setting": "Escherichia coli 10418", "result": 62.5, "unit": "mg/L"}, {"measurement": "MIC", "setting": "Enterobacter cloacae N1", "result": 125, "unit": "mg/L"}, {"measurement": "MIC", "setting": "[4]", "result": 125, "unit": "mg/L"}, {"measurement": "MIC", "setting": "Proteus mirabilis C 977", "result": 125, "unit": "mg/L"}, {"measurement": "MIC", "setting": "Pseudomonas aeruginosa A", "result": 1000, "unit": "mg/L"}, {"measurement": "MIC", "setting": "Staph. aureus Oxford", "result": 15.6, "unit": "mg/L"}, {"measurement": "MIC", "setting": "[5]", "result": 125, "unit": "mg/L"}, {"measurement": "MIC", "setting": "Bacillus subtilis A", "result": 62.5, "unit": "mg/L"}, {"measurement": "MIC", "setting": "Staph. aureus Russell", "result": 31, "unit": "mg/L"}]}, {"smiles": "O=C(O)[C@H]1/C(=C/CO)O[C@@H]2CC(=O)N21", "note": "[clavulanic acid]", "values": [{"measurement": "β-lactamase inhibitory activity", "setting": "β-lactamase", "result": "β-lactamase inhibitory activity"}, {"measurement": "anti-bacterial activity", "setting": "[2]", "result": "possess anti-bacterial"}]}]}
